The numbers were not newly measured in patent US20120183988A1, “INTEIN-BASED F[…]-CIRCUIT FOR VITAMIN D DETECTION” (priority 2009, published 2012), which cites them from elsewhere.

The structures appear in SMILES notation.

For the data set the following is noted: cited from reference 2 (Haddad and Stamp 1974).

Consider `C=C1CC[C@H](O)C/C1=C/C=C1\CCC[C@]2(C)[C@@H]([C@H](C)CCCC(C)(C)O)CC[C@@H]12` [25(OH)D3, 25-hydroxyvitamin D3], for which the serum half-life result is “ca. 3 weeks”.
